Values quoted from earlier work in publication PMC5555364 (ACS chemical neuroscience, 2016).

Assays:
[1] = test system: single-point mutants of rNaV1.4; conditions: all amino acid mutations of Figure 5 except tyrosine 1586
NaV = conditions: hyperpolarizing

Batrachotoxin [BTX]
effect of mutations on BTX action on channel function [1]: abrogate the effect of BTX | shift of voltage-dependence of channel activation (NaV): −45 mV
